{
  "source": "ChEMBL document CHEMBL1201862",
  "about": "“PubChem BioAssay data set” (2004)",
  "key": {"[1]": {"target": "Alkaline phosphatase, placental type (Homo sapiens, UniProt P05187)", "sequence (P05187 whole entry)": "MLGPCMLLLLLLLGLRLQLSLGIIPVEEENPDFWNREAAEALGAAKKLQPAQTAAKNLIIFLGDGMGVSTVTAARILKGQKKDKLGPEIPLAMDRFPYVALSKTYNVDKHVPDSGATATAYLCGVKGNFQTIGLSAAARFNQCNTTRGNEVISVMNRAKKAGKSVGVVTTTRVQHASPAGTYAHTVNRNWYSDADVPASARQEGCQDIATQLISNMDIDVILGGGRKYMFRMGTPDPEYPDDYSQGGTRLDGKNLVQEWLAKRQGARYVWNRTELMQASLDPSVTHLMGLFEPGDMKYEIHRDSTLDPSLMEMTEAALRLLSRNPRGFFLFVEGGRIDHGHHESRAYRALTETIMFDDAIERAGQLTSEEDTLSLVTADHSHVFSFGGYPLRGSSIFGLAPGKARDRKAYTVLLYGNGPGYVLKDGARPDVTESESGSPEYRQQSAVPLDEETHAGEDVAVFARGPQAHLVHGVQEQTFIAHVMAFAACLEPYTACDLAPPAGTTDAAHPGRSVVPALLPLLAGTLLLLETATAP", "experiment": "PLAP enzyme inhibitors, confirmation, biochemical, luminescence (AID 1512)", "assay_type": "functional"}, "[2]": {"target": "T1, Alkaline phosphatase, tissue-nonspecific isozyme (Homo sapiens, UniProt P05186)", "T1 sequence (P05186 whole entry)": "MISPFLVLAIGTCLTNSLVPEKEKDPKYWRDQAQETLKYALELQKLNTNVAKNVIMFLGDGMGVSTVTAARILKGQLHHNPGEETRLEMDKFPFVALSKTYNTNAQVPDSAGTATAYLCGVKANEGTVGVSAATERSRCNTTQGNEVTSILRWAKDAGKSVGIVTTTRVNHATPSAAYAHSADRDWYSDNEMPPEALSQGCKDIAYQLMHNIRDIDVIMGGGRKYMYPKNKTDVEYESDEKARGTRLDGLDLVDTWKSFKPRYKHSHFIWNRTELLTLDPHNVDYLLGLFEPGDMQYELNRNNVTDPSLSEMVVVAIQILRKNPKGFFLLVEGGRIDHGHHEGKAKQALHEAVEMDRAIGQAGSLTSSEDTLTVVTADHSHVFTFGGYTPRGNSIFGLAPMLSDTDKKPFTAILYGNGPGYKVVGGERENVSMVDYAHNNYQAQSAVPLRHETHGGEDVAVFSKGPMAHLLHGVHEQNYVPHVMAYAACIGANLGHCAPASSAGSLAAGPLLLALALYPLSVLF", "experiment": "human TNAP enzyme inhibitors, SAR follow-up, biochemical, luminescent, dose response (AID 1056)"}, "CHO-K1": {"test_system": "CHO-K1", "experiment": "(§1) Counterscreen for antagonists of the orexin 1 receptor (OX1R; HCRTR1): Homogeneous time resolved fluorescence (HTRF)-based cell-based dose response assay to identify antagonists of the parental CHO-K1 cell line. [Related pubchem assays (depositor defined):AID434989, AID435008, AID463079, AID485270, AID492963, AID492964, AID492965, AID493232, AID504699, AID504701]", "assay_type": "functional", "details": "Cricetulus griseus"}, "[3]": {"experiment": "as §1, with “Fluorescence-based” for “Homogeneous time resolved fluorescence (HTRF)-based”, “cell-based high throughput” for “cell-based”, “CHO” for “CHO-K1”", "assay_type": "functional"}, "[4]": {"target": "T2, Orexin/Hypocretin receptor type 1 (Homo sapiens, UniProt O43613)", "T2 sequence (O43613 whole entry)": "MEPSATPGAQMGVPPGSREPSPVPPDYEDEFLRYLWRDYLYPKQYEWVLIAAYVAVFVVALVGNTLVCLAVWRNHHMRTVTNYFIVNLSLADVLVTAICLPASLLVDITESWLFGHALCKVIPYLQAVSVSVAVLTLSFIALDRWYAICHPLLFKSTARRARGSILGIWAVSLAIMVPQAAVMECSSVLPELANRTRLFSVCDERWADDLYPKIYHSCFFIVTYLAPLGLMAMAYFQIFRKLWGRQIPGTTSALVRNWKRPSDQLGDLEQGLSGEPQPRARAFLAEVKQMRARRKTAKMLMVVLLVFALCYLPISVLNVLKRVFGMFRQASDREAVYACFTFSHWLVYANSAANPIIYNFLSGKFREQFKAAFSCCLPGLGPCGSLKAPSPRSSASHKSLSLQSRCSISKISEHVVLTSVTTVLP", "experiment": "Homogeneous Time Resolved Fluorescence (HTRF)-based cell-based high throughput dose response assay for antagonists of the orexin 1 receptor (OX1R; HCRTR1). [Related pubchem assays (depositor defined):AID434989, AID435008, AID463079, AID485270, AID492963, AID492964, AID492965, AID493232, AID504717, AID504718]", "assay_type": "functional"}, "[5]": {"target": "T2, Orexin/Hypocretin receptor type 1", "experiment": "Fluorescence-based cell-based high throughput dose response assay for antagonists of the orexin 1 receptor (OX1R; HCRTR1). [Related pubchem assays (depositor defined):AID434989, AID435008, AID463079, AID485270, AID492963, AID492964, AID492965, AID493232, AID504717, AID504718]", "assay_type": "functional"}, "[6]": {"experiment": "Luminescence Cell-Based Dose Confirmation HTS to Identify Activators of 5'UTR Stem-Loop Driven Alpha-Synuclein mRNA Translation in H4 Neuroglioblastoma Cells. [Related pubchem assays: 1829 (Project Summary), 1814 (Primary HTS)]", "assay_type": "functional"}, "[7]": {"experiment": "Luminescence Cell-Based Dose Response HTS to Identify Activators of Luciferase Translation or Activity in H4 […] Cells. [Related pubchem assays: 1829 (Project Summary), 1814 (Primary HTS)]", "assay_type": "functional"}, "[8]": {"test_system": "Streptococcus sp. 'group A'", "experiment": "growth inhibition of control SK(-) GAS strain, dose response, counter-screen for streptokinase expression inhibitor project, luminescence, kanamycin, BacTiterGlo, confirmation (AID 1900)", "assay_type": "functional, organism-based"}, "H4": {"test_system": "H4", "experiment": "Luminescence Cell-Based Dose Response HTS to Identify Activators of 5'UTR Stem-Loop Driven Prion Protein mRNA Translation in H4 Neuroglioblastoma Cells. [Related pubchem assays: 1829 (Project Summary), 1814 (Primary HTS)]", "assay_type": "functional", "details": "Homo sapiens"}, "[9]": {"experiment": "inhibitors of intracellular T. cruzi replication, confirmation, NIH3T3 host cells, beta-gal luminescence (AID 2044)", "assay_type": "functional, cell-based"}, "[10]": {"experiment": "cytotoxicity toward NIH3T3 fibroblasts, dose response, counter-screen, cell-based, ATP luminescence, mouse fibroblasts (AID 2010)", "assay_type": "functional"}, "Streptococcus": {"test_system": "Streptococcus", "experiment": "Group A Streptococcus viability loss, dose response, counter-screen for streptokinase expression inhibitor project, luminescence, BacTiterGlo (AID 1915)", "assay_type": "functional, organism-based"}, "Exodeoxyribonuclease V": {"target": "Exodeoxyribonuclease V (Escherichia coli (strain K12), UniProt P04993+P07648+P08394)", "sequence (P04993 whole entry)": "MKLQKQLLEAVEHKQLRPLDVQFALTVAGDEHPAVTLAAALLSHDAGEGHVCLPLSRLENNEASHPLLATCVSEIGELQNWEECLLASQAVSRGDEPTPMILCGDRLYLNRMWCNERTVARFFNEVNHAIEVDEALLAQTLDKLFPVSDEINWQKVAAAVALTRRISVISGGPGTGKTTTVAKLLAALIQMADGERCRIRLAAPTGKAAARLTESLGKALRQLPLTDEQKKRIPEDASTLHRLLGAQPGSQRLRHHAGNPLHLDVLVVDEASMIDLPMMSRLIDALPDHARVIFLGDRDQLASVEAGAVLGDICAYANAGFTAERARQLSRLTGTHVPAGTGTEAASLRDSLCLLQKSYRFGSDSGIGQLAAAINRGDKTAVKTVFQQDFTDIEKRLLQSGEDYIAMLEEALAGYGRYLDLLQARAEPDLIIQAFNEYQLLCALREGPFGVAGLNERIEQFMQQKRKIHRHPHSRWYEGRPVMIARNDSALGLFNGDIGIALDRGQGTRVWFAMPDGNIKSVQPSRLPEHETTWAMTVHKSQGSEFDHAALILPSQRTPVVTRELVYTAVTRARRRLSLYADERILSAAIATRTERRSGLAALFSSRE", "sequence (P07648 whole entry)": "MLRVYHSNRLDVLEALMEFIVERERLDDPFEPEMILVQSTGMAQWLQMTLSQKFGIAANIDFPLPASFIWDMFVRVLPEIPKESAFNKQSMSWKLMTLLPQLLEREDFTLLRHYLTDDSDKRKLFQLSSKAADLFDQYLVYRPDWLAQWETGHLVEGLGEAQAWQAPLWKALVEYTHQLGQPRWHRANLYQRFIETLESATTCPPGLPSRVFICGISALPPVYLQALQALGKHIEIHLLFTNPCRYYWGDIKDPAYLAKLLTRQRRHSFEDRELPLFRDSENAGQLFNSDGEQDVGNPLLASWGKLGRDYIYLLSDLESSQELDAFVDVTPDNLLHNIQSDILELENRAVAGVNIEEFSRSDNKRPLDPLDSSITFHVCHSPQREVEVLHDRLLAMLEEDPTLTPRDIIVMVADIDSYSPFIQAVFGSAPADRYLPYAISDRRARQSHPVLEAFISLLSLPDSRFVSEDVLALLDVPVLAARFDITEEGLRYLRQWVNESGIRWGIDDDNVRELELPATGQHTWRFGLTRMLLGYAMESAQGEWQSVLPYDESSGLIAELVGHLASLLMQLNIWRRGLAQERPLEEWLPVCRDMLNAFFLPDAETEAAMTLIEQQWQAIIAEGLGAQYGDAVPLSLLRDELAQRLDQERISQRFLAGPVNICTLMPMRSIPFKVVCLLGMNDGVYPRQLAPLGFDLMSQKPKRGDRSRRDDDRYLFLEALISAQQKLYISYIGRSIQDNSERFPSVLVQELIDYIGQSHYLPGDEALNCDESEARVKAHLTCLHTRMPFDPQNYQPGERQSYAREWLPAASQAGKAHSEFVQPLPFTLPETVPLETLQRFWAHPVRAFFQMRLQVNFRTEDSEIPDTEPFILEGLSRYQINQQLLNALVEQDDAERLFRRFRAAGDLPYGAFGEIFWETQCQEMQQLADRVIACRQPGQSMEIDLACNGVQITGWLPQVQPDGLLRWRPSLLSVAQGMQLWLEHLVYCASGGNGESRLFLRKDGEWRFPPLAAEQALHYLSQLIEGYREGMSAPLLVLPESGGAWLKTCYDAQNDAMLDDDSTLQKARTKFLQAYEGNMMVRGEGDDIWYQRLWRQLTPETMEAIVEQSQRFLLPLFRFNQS", "sequence (P08394 whole entry)": "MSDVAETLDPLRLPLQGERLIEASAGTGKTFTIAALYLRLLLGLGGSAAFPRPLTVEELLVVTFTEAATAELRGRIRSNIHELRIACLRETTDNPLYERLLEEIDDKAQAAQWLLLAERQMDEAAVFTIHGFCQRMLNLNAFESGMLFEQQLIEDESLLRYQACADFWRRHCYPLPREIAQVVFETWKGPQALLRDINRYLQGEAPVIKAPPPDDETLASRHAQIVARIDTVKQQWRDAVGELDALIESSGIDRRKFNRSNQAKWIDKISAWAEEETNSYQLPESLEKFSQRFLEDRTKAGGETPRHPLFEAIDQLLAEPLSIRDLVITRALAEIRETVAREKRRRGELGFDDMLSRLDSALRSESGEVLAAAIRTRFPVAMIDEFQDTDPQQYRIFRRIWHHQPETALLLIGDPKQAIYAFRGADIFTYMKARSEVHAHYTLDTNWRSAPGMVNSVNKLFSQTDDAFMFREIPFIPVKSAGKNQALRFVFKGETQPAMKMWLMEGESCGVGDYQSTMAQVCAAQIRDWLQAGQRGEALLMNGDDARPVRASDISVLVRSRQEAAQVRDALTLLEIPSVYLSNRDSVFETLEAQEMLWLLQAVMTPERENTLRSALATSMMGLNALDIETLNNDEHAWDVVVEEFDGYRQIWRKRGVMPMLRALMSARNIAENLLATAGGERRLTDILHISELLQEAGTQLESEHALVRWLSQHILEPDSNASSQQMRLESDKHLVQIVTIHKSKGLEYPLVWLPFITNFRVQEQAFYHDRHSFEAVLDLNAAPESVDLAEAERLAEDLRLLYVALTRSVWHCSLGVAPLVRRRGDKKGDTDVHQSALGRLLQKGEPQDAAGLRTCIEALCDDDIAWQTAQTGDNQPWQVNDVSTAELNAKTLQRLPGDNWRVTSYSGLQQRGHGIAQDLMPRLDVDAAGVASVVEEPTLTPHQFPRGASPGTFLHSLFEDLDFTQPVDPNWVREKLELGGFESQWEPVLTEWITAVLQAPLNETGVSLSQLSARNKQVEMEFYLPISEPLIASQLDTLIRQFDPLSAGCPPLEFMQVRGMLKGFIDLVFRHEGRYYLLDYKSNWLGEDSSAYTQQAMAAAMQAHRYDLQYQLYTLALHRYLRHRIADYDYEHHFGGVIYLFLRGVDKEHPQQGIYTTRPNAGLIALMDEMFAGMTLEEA", "experiment": "E. coli RecBCD inhibitors, dose response, counter-screen for AddAB inhibitor project, absorbance, V66 E. coli, mutant T4 phage (AID 492957)", "assay_type": "functional, cell-based, Escherichia coli str. K-12 substr. MG1655"}, "[11]": {"experiment": "Counterscreen for AddAB inhibitors: absorbance-based bacterial cell-based high throughput dose response assay for inhibitors of bacterial viability. [Related pubchem assays (depositor defined):AID435030, AID449728, AID449731, AID488942, AID488955, AID488956]", "assay_type": "functional"}, "BJ [12]": {"test_system": "BJ", "experiment": "cytotoxicity toward BJ-TERT fibroblasts, dose response, cell-based, RAS-independent, luminescence (AID 1933)", "assay_type": "functional", "details": "Homo sapiens"}, "cells [13]": {"experiment": "cells", "assay_type": "functional, cell-based"}, "BJ [14]": {"test_system": "BJ", "experiment": "cells", "assay_type": "functional, cell-based", "details": "Homo sapiens"}, "[15]": {"experiment": "microbe, parasite or virus in culture", "assay_type": "functional", "details": "Mycobacterium tuberculosis"}, "cells [16]": {"experiment": "cells", "assay_type": "functional, cell-based", "remark": "listed apart in the source"}, "BJ [17]": {"test_system": "BJ", "experiment": "cytotoxicity toward BJ-TERT-LT-ST fibroblasts, dose response, cell-based, RAS-independent, luminescence (AID 1935)", "assay_type": "functional", "details": "Homo sapiens"}, "[18]": {"experiment": "cytotoxicity toward DRD oncogenic fibroblasts, dose response, cell-based, non-viral oncogenic, luminescence (AID 1934)", "assay_type": "functional", "details": "Homo sapiens"}, "BJ [19]": {"test_system": "BJ", "experiment": "cytotoxicity toward Ras-transformed BJeLR fibroblasts, dose response, cell-based, alamar blue fluorescence, cherrypicked samples (AID 2631)", "assay_type": "functional", "details": "Homo sapiens"}, "INS1": {"test_system": "INS1", "experiment": "beta cell apoptosis inhibitors, cytokine rescue, dose response, luminescence, retest (AID 449756)", "assay_type": "functional, cell-based", "details": "Rattus norvegicus"}, "[20]": {"target": "T3, E3 ubiquitin-protein ligase XIAP (Homo sapiens, UniProt P98170)", "T3 sequence (P98170 whole entry)": "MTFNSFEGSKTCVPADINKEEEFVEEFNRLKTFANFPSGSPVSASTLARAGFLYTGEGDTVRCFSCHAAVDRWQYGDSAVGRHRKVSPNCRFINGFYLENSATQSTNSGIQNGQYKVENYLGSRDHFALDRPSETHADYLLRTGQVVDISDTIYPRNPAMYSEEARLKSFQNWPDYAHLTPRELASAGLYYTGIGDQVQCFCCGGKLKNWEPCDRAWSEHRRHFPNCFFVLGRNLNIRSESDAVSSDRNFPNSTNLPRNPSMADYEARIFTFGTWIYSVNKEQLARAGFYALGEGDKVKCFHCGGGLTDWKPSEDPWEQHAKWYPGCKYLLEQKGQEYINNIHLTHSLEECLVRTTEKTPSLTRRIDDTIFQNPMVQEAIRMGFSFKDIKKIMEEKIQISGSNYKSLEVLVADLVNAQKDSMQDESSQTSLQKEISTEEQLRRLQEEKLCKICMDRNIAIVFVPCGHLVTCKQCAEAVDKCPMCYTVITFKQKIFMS", "experiment": "Counter Screen using XIAP-Bir3 for Chemical Antagonists of Bir1/2 domains of IAP-family anti-apoptotic proteins. [Related pubchem assays (depositor defined):AID1018, AID1449, AID1514, AID1638, AID1749, AID1750, AID488957, AID488963]"}, "[21]": {"target": "T3, E3 ubiquitin-protein ligase XIAP", "experiment": "XIAP antagonists, biochemical, IAP family, fluorescence polarization (AID 1018)", "assay_type": "functional"}},
  "note": "The source made the active and inactive calls.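 Throughout, for AC50: cell death triggered by IL-1 beta plus TNF-alpha plus IFN-gamma mixture; protective hits raise ATP signal compared with cytokine alone wells.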",
  "data": [
    {"molecule": "C=CCn1c(SCC(=O)c2ccc(O)c(O)c2)nnc1-c1ccc(C(C)(C)C)cc1", "values": [
      {"measurement": "IC50", "setting": "[1]", "result": "97.5 µM (active)"},
      {"measurement": "IC50", "setting": "[2]", "result": "> 100 µM (inactive)"}
    ]},
    {"molecule": "COC(=O)C(C(C)=O)C1=C/C(=N\\S(=O)(=O)c2ccc(C)cc2)c2ccccc2C1=O", "note": "(stereo not drawn)", "values": [
      {"measurement": "IC50", "setting": "CHO-K1", "result": "53.7 µM (inactive)"},
      {"measurement": "IC50", "setting": "[3]", "result": "> 49.8 µM (inactive)"},
      {"measurement": "IC50", "setting": "[4]", "result": "0.414 µM (active)"},
      {"measurement": "IC50", "setting": "[5]", "result": "2.83 µM (active)"}
    ]},
    {"molecule": "CCOC(=O)C1=C(C)N=C2C(=C(O)c3ccccc32)C1c1ccc([N+](=O)[O-])o1", "note": "(stereo not drawn)", "values": [
      {"measurement": "EC50", "setting": "[6]", "result": "> 120 µM (not active)"},
      {"measurement": "EC50", "setting": "[7]", "result": "> 120 µM (not active)"},
      {"measurement": "EC50", "setting": "[8]", "result": "2.81 µM (active)"},
      {"measurement": "EC50", "setting": "H4", "result": "> 120 µM (not active)"},
      {"measurement": "EC50", "setting": "[9]", "result": "1.43 µM (active)"},
      {"measurement": "EC50", "setting": "[10]", "result": "> 60 µM (not active)"},
      {"measurement": "EC50", "setting": "Streptococcus", "result": "29.9 µM (active)"},
      {"measurement": "IC50", "setting": "Exodeoxyribonuclease V", "result": "> 119 µM (inactive)"},
      {"measurement": "IC50", "setting": "[11]", "result": "> 119 µM (inactive)"}
    ]},
    {"molecule": "COc1ccc(N/N=C(/N=Nc2nc(C)cc(O)n2)c2ccccc2)cc1", "values": [
      {"measurement": "EC50", "setting": "BJ [12]", "result": "4.09 µM (active)"},
      {"measurement": "EC50", "setting": "cells [13]", "result": "3.44 µM (active)"},
      {"measurement": "EC50", "setting": "BJ [14]", "result": "3.68 µM (active)"},
      {"measurement": "CC50", "setting": "[15]", "result": "6.39 µM (active)"},
      {"measurement": "EC50", "setting": "cells [16]", "result": "5.67 µM (active)"},
      {"measurement": "EC50", "setting": "BJ [17]", "result": "4.21 µM (active)"},
      {"measurement": "EC50", "setting": "[18]", "result": "5.72 µM (active)"},
      {"measurement": "IC50", "setting": "Exodeoxyribonuclease V", "result": "> 119 µM (inactive)"},
      {"measurement": "IC50", "setting": "[11]", "result": "> 119 µM (inactive)"},
      {"measurement": "EC50", "setting": "BJ [19]", "result": "0.615 µM (active)"},
      {"measurement": "AC50", "setting": "INS1", "result": "< 0.195 µM (active)"}
    ]},
    {"molecule": "Cc1ccc(C(=O)N/N=C\\c2ccccc2[N+](=O)[O-])cn1", "values": [
      {"measurement": "IC50", "setting": "[20]", "result": "> 100 µM (inactive)"},
      {"measurement": "IC50", "setting": "[21]", "result": "> 100 µM (not active)"}
    ]}
  ]
}
